Test results taken from the supplement of paper PMC13380429.

How the values were obtained:
A549-ACE2 = test: drug-induced phospholipidosis relative to tamoxifen; higher = more phospholipidosis
[1] = tested on: A549-ACE2 infected with SARS-CoV-2; test: SARS-CoV-2 infection rate relative to DMSO; higher = more infection; details: 24 h
Calu-3 [2] = test: drug sensitivity score (DSS) for viability; higher = more toxic; extreme values may be limits of the assay; details: 72 h
Vero E6 [3] = test: as above; details: 72 h
U2OS [4] = test: as above; details: 72 h
Caco-2 [5] = test: as above; details: 72 h
HepG2 [6] = test: as above; details: 72 h
[7] = tested on: A549-ACE2 infected with SARS-CoV-2; test: cell count relative to DMSO; higher = less toxic; details: 24 h
Calu-3 [8] = test: cell viability relative to DMSO; higher = less toxic; details: 72 h
Vero E6 [9] = test: as above; details: 72 h
U2OS [10] = test: as above; details: 72 h
Caco-2 [11] = test: as above; details: 72 h
HepG2 [12] = test: as above; details: 72 h
[13] = tested on: A549-ACE2 infected with SARS-CoV-2; test: morphology score (similarity to uninfected cells); higher = more like uninfected cells; details: 24 h
Calu-3 [14] = test: relative viability EC50 (midpoint between 100% and the lowest measured viability); higher = less toxic; details: 72 h
Vero E6 [15] = test: as above; details: 72 h
U2OS [16] = test: as above; details: 72 h
HepG2 [17] = test: as above; details: 72 h
Caco-2 [18] = test: as above; details: 72 h

CCC(CC)COC(=O)[C@H](C)N[P@](=O)(OC[C@H]1O[C@@](C#N)(c2ccc3c(N)ncnn23)[C@H](O)[C@@H]1O)Oc1ccccc1 [Remdesivir]
drug-induced phospholipidosis [%], A549-ACE2
Details	0.3 µM	0.833333 µM	3.33333 µM	6.66667 µM	10 µM	30 µM
24 h	1.03	-4.55	5.63	18	30	47.1
48 h	4.23	-7.54	0.11	4.58	10.5	–
72 h	4.52	-8.77	-4.57	–	–	–

Details	SARS-CoV-2 infection rate [%]	cell count [%]	cell viability [%]	morphology score
Caco-2 [11], 1 nM	–	–	103	–
Caco-2 [11], 10 nM	–	–	101	–
Caco-2 [11], 100 nM	–	–	102	–
Caco-2 [11], 1000 nM	–	–	102	–
Caco-2 [11], 10000 nM	–	–	69.3	–
Calu-3 [8], 1 nM	–	–	90.6	–
Calu-3 [8], 10 nM	–	–	103	–
Calu-3 [8], 100 nM	–	–	88.7	–
Calu-3 [8], 1000 nM	–	–	97	–
Calu-3 [8], 10000 nM	–	–	81.1	–
HepG2 [12], 1 nM	–	–	101	–
HepG2 [12], 10 nM	–	–	95.5	–
HepG2 [12], 100 nM	–	–	105	–
HepG2 [12], 1000 nM	–	–	70.2	–
HepG2 [12], 10000 nM	–	–	33.7	–
U2OS [10], 1 nM	–	–	98	–
U2OS [10], 10 nM	–	–	100	–
U2OS [10], 100 nM	–	–	101	–
U2OS [10], 1000 nM	–	–	96.1	–
U2OS [10], 10000 nM	–	–	42.6	–
Vero E6 [9], 1 nM	–	–	97.2	–
Vero E6 [9], 10 nM	–	–	97.6	–
Vero E6 [9], 100 nM	–	–	99.7	–
Vero E6 [9], 1000 nM	–	–	99.3	–
Vero E6 [9], 10000 nM	–	–	109	–
[1], 0.008 µM	95	–	–	–
[1], 0.033 µM	83	–	–	–
[1], 0.1 µM	18	–	–	–
[1], 0.3 µM	11	–	–	–
[1], 1 µM	16	–	–	–
[1], 3 µM	9	–	–	–
[1], 10 µM	2	–	–	–
[1], 30 µM	2	–	–	–
[7], 0.008 µM	–	104	–	–
[7], 0.033 µM	–	114	–	–
[7], 0.1 µM	–	120	–	–
[7], 0.3 µM	–	126	–	–
[7], 1 µM	–	124	–	–
[7], 3 µM	–	116	–	–
[7], 10 µM	–	111	–	–
[7], 30 µM	–	105	–	–
[13], 0.008 µM	–	–	–	0.17
[13], 0.033 µM	–	–	–	0.61
[13], 0.1 µM	–	–	–	0.82
[13], 0.3 µM	–	–	–	0.95
[13], 1 µM	–	–	–	0.96
[13], 3 µM	–	–	–	0.97
[13], 10 µM	–	–	–	0.93
[13], 30 µM	–	–	–	0.93

Details	drug sensitivity score	relative viability EC50 [nM]
Caco-2 [5]	1.2	–
Calu-3 [2]	0.4	–
Calu-3 [14]	–	> 10000
HepG2 [6]	7.5	–
HepG2 [17]	–	1090
U2OS [4]	3.7	–
U2OS [16]	–	2620
Vero E6 [3]	0	–
Vero E6 [15]	–	> 10000

COc1ccc(C[C@H]2NC[C@H](O)[C@H]2OC(C)=O)cc1 [anisomycin]
A549-ACE2, 24 h
Details	drug-induced phospholipidosis [%]
0.3 µM	4.72
0.833333 µM	-0.99

Details	SARS-CoV-2 infection rate, [1] [%]	cell count, [7] [%]	cell viability, Caco-2 [11] [%]	cell viability, Calu-3 [8] [%]	cell viability, HepG2 [12] [%]	cell viability, U2OS [10] [%]	cell viability, Vero E6 [9] [%]	morphology score, [13]
1 nM	–	–	99.4	103	96.1	103	94.1	–
10 nM	–	–	87	97.9	98.5	95.6	93	–
0.1 µM	7	103	–	–	–	–	–	0.85
100 nM	–	–	58.5	67.4	39.4	53.4	34.1	–
0.3 µM	6	85	–	–	–	–	–	0.65
1 µM	18	64	–	–	–	–	–	0.48
1000 nM	–	–	24.8	35.1	11.8	5.4	9.8	–
3 µM	14	34	–	–	–	–	–	0.46
10000 nM	–	–	26.5	29.1	3.7	0.5	0.4	–

Details	drug sensitivity score	relative viability EC50 [nM]
Caco-2 [5]	18.9	–
Caco-2 [18]	–	69.1
Calu-3 [2]	16.1	–
Calu-3 [14]	–	117
HepG2 [6]	24.6	–
HepG2 [17]	–	72.8
U2OS [4]	22.9	–
U2OS [16]	–	110
Vero E6 [3]	25.9	–
Vero E6 [15]	–	61.4

CNC(=O)c1ccccc1Sc1ccc2c(/C=C/c3ccccn3)n[nH]c2c1 [axitinib]
drug-induced phospholipidosis [%], A549-ACE2
Details	0.3 µM	0.833333 µM	3.33333 µM	6.66667 µM	10 µM	30 µM
24 h	2.86	4.48	16.8	10.3	7.44	17.1
48 h	1.43	3.96	7.83	7.9	8.63	15.9
72 h	4.56	4.58	–	–	–	–

Details	SARS-CoV-2 infection rate, [1] [%]	cell count, [7] [%]	cell viability, Caco-2 [11] [%]	cell viability, Calu-3 [8] [%]	cell viability, HepG2 [12] [%]	cell viability, U2OS [10] [%]	cell viability, Vero E6 [9] [%]	morphology score, [13]
1 nM	–	–	97.2	108	111	102	114	–
10 nM	–	–	108	102	97.7	104	106	–
100 nM	–	–	92	93.6	108	103	108	–
0.3 µM	92	105	–	–	–	–	–	0.34
1000 nM	–	–	97.8	86.7	92.2	105	101	–
3 µM	98	75	–	–	–	–	–	0.32
10 µM	96	77	–	–	–	–	–	0.35
10000 nM	–	–	72.5	81	71.8	74	94.2	–
30 µM	91	68	–	–	–	–	–	0.49

Details	drug sensitivity score	relative viability EC50 [nM]
Caco-2 [5]	1.5	–
Calu-3 [2]	1.7	–
Calu-3 [14]	–	> 10000
HepG2 [6]	2.3	–
U2OS [4]	0.8	–
Vero E6 [3]	0	–
Vero E6 [15]	–	> 10000
